{
  "source": "patent US20100099730A1",
  "about": "“ANNELLATED PYRROLE COMPOUNDS FOR CANCER MANAGEMENT” (MERCKLE GMBH, priority 2006, published 2010)",
  "key": {"caspase-3": {"tested_on": "caspase-3", "test": "Western blot of caspase-3 cleavage in HCA-7 cells", "type": "cell-based, human", "details": "licofelone 150 μM, 0-24 hours, maximum after 24 hours", "experimental": "(§1) For Western blot analysis, cells were seeded in a 25 cm^2 flask at the density of 1.5×10^6 and grown in complete medium for 24 hours. At the end of incubation cells were scraped from flasks and lysed in a buffer containing 10 mM Tris, 1% SDS, 1 mM Na orthovanadate and a protease inhibitors cocktail. Samples containing 50 μg of protein were subjected to gel electrophoresis in 10% polyacrylamide gels in the presence of SDS. The proteins were then transferred electrophoretically to a Hybond-C nitrocellulose membrane at 300 V for 1 h at 4° C. The membrane was subsequently immersed in 0.5% Ponceau S in 1% acetic acid to stain the proteins and to confirm that equal amounts of protein were loaded in each lane and transferred efficiently. After incubation overnight in a blocking solution containing 5% bovine skim milk powder in 10 mM phosphate buffered saline (PBS, pH 7.4), the nitrocellulose membrane was incubated for 1 h with primary antibodies: anti COX-1, anti COX-2 and anti 5-LOX were used in HCA-7, Caco-2 and LS174T at a dilution of 1:500; anti Caspase-3 and anti PARP-1 were used in HCA-7 at the dilution of 1:250. The membrane was then washed with PBS buffer to remove the excess unbound antibodies and incubated for 1 h with HRP-conjugated secondary antibody, at a dilution of 1:1000. Detection was performed by using the ECL procedure developed by Amersham. […]"}, "PARP": {"tested_on": "PARP", "test": "Western blot of PARP cleavage in HCA-7 cells", "type": "cell-based, human", "details": "licofelone 150 μM, almost complete at 24 hours", "experimental": "as §1"}, "HCA-7 cells [1]": {"tested_on": "HCA-7 cells", "test": "Cell-cycle distribution by flow cytometry (propidium iodide), sub-G1 cells", "type": "cell-based, human", "details": "0-150 μM, after 48 hours of treatment", "experimental": "For treatment with licofelone ([…] GmbH, Ulm, Germany), exponentially growing cells were trypsinized, seeded in regular medium (2×10^4 cells/well in 96-well plates; 1.2×10^5 cells/well in 24-well plates; 6×10^5 cells/well in 6-well plates; 1.5×10^6 cells in 25 cm^2 flasks) and incubated for 24 h. The medium was then replaced either with control medium or with medium containing 100, 125 or 150 μM licofelone. This drug was dissolved in dimethyl sulfoxide (DMSO) and diluted into the medium to obtain the required final concentration before each experiment. Fresh medium, alone or supplemented with licofelone, was completely replaced every 48 hours. To control for an effect of DMSO, control samples were treated in parallel with an equivalent concentration of this solvent. The cell-cycle distribution for control and drug-treated cells was determined after 24 and 48 hours of treatment. Cells were seeded at the density of 6×10^5 cells/well onto 6-well plates and allowed to adhere for 24 h. Cells were then incubated with licofelone for 24 and 48 hours and then harvested by trypsinization. […] Subsequently, DNA content was measured using a flow cytometer and the cell-cycle distribution was calculated using the Phoenix Multicycle for Windows cell-cycle analysis software. A minimum of 10'000 events were measured for each sample."}, "HCA-7 cells [2]": {"tested_on": "HCA-7 cells", "test": "MTT reduction assay, HCA-7 survival/proliferation", "type": "cell-based, human", "experimental": "LS174T and CACO-2 were a generous gift of Prof. F. Dall'Olio (Dept. of Experimental Pathology, University of Bologna, Italy); HCA-7 cells were purchased from European Collection of Cell Cultures. These lines were cultured in Dulbecco's modified Eagle's Medium with 4.5 g/L glucose (DMEM), supplemented with 10% (v/v) heat-inactivated FBS, 2 mM L-glutamine, 100 U/ml penicillin and 100 μg/ml streptomycin. Cells were grown in monolayers, incubated at 37° C. in a humidified atmosphere of 95% air and 5% CO2 and routinely passaged using trypsin-EDTA 0.025%. For treatment with licofelone ([…] GmbH, Ulm, Germany), exponentially growing cells were trypsinized, seeded in regular medium (2×10^4 cells/well in 96-well plates; 1.2×10^5 cells/well in 24-well plates; 6×10^5 cells/well in 6-well plates; 1.5×10^6 cells in 25 cm^2 flasks) and incubated for 24 h. The medium was then replaced either with control medium or with medium containing 100, 125 or 150 μM licofelone. This drug was dissolved in dimethyl sulfoxide (DMSO) and diluted into the medium to obtain the required final concentration before each experiment. Fresh medium, alone or supplemented with licofelone, was completely replaced every 48 hours. To control for an effect of DMSO, control samples were treated in parallel with an equivalent concentration of this solvent. The effect of licofelone on HCA-7 survival/proliferation was determined colourimetrically using the MTT assay. MTT is a yellow-coloured tetrazolium salt that is taken up and cleaved only by metabolically active cells, which reduce it to a coloured, water-insoluble formazan salt. The solubilized formazan product can be quantified via absorbance at 570 nm measured using a 96-well-format spectrophotometer and the absorbance correlates directly with cell number. 2×10^4 cells/well were plated in a 100 μl volume in 96-well plates and grown for 24 h in DMEM supplemented with 10% FBS. Complete medium containing the indicated amount of licofelone, alone or in association with exogenous PGE2 and/or LTB4), was then replaced to each well. At the indicated times, 10 μl of MTT (5 mg/ml) was added and cells were incubated at 37° C. for 4 hours. The tetrazolium crystals were solubilized by the addition of 10% SDS in 0.01 N HCl. After overnight incubation at 37° C., the absorbance was measured at 570 nm using a 96-well spectrophotometric microplate reader. Survival/proliferation rate was calculated as follows (A570 treatment/A570 control×100). All determinations were carried out in triplicate."}, "[3]": {"test": "Plasma ML3000 level after immediate release dosage form", "type": "in vivo", "details": "for 8 hours"}, "[4]": {"tested_on": "PGE2 production by HCA-7 cells", "test": "PGE2 level in HCA-7 culture medium, enzyme immunoassay", "type": "cell-based, human", "details": "all doses tested (100-150 μM), 24 hours", "experimental": "(§2) For treatment with licofelone ([…] GmbH, Ulm, Germany), exponentially growing cells were trypsinized, seeded in regular medium (2×10^4 cells/well in 96-well plates; 1.2×10^5 cells/well in 24-well plates; 6×10^5 cells/well in 6-well plates; 1.5×10^6 cells in 25 cm^2 flasks) and incubated for 24 h. The medium was then replaced either with control medium or with medium containing 100, 125 or 150 μM licofelone. This drug was dissolved in dimethyl sulfoxide (DMSO) and diluted into the medium to obtain the required final concentration before each experiment. Fresh medium, alone or supplemented with licofelone, was completely replaced every 48 hours. To control for an effect of DMSO, control samples were treated in parallel with an equivalent concentration of this solvent. For determination of PGE2 and LTB4 production, HCA-7 were seeded in a 24-well plates at the density of 1.2×10^5 cells/well and grown in complete medium for 24 hours. Cells were then serum-starved overnight before being exposed to increasing doses of licofelone (100-150 μM) in serum-free medium for additional 24 hours. The harvested medium was centrifuged at 500×g for 5 min (4° C.) to remove floating cells and the supernatant was collected and assayed following customer instructions. The levels of PGE2 and LTB4 were measured by enzyme immunoassay. Results are expressed as picograms/ml of medium. […]"}, "HCA-7 cells [5]": {"tested_on": "HCA-7 cells", "test": "Cell morphology: phase-contrast and Hoechst 33342 fluorescence microscopy", "type": "cell-based, human", "details": "licofelone 150 μM", "experimental": "Morphological changes in the nuclear chromatin of cells undergoing apoptosis were detected by staining with the DNA-binding fluorochrome bis-benzimide stain. Briefly, HCA-7 were seeded in a flat-bottomed 96-well plate at the density of 2×10^4 cells/well and grown for 24 hours in complete medium. Cells where then cultured in the presence or absence of licofelone 150 μM at the indicated times; at the end of incubation, Hoechst 33342 (1 μg/ml) was added to each well for at least 20 min. at 37° C. HCA-7 cells were then washed with phosphate-buffered saline (PBS), fixed in 4% formaldehyde and observed under a fluorescence microscope."}, "[6]": {"tested_on": "LTB4 production by HCA-7 cells", "test": "LTB4 level in HCA-7 culture medium, enzyme immunoassay", "type": "cell-based, human", "details": "150 μM, 24 hours, serum-free medium", "experimental": "as §2"}},
  "data": [
    {"smiles": "CC1(C)Cc2c(-c3ccccc3)c(-c3ccc(Cl)cc3)c(CC(=O)O)n2C1", "note": "[licofelone, [2,2-dimethyl-6-(4-chlorophenyl)-7-phenyl-2,3-dihydro-1H-pyrrolizine-5 yl]-acetic acid]", "values": [
      {"measurement": "cleavage of 34-kDa pro-enzyme caspase-3 to active 17-kDa form", "setting": "caspase-3", "value": "strong and time-dependent cleavage"},
      {"measurement": "degradation of PARP (85-kDa band)", "setting": "PARP", "value": "marked degradation of PARP"},
      {"measurement": "accumulation of sub-G1 phase cells, maximum", "setting": "HCA-7 cells [1]", "value": 85, "unit": "%"},
      {"measurement": "reversal of antiproliferative effect by exogenous PGE2 or LTB4", "setting": "HCA-7 cells [2]; 150 μM licofelone, 48 hours, exogenous PGE2 and LTB4 added", "value": "neither PGE2 or LTB4 administration was able to reverse the antiproliferative effect"},
      {"measurement": "IC50", "setting": "HCA-7 cells [2]; Homo sapiens, HCA-7, after 24 hours of treatment", "value": "125 ± 6.25", "unit": "µM"},
      {"measurement": "IC50", "setting": "HCA-7 cells [2]; Homo sapiens, HCA-7, after 48 hours of treatment", "value": "72 ± 3.6", "unit": "µM"},
      {"measurement": "inhibition at 150 µM", "setting": "HCA-7 cells [2]; Homo sapiens, HCA-7, licofelone 150 μM, read-out: inhibition of HCA-7 growth", "value": "~90", "unit": "%"},
      {"measurement": "plasma ML3000 concentration maintained", "setting": "[3]; dose 2.5 mg/kg", "value": "above 100 ng/mL"},
      {"measurement": "plasma ML3000 concentration maintained", "setting": "[3]; dose 5 mg/kg", "value": "> 200", "unit": "ng/mL"},
      {"measurement": "inhibition of PGE2 production", "setting": "[4]", "value": "strongly inhibited PGE2 production"},
      {"measurement": "appearance of membrane blebbing after administration of the drug", "setting": "HCA-7 cells [5]", "value": "10 to 12", "unit": "h"},
      {"measurement": "morphological changes of nuclei after drug addition", "setting": "HCA-7 cells [5]; Hoechst staining", "value": "16-18 hours"},
      {"measurement": "reduction of LTB4 levels with respect to untreated cells", "setting": "[6]", "value": 85, "unit": "%"}
    ]}
  ]
}
